According to patent US20050239806A1, “Pyrrolopyrimidine derivatives and analogs and their use in the treatment and prevention of diseases” (Ambit Biosciences Corporation, priority 2004, published 2005):

Assays:
[1] = biological target: T1, EGFR (tyrosine 1173 phosphorylation) in A431 cells (Homo sapiens, UniProt P00533); experiment: EGFR Autophosphorylation Inhibition Assay in Epidermoid Carcinoma Cell Line A431; format: cell-based; conditions: EGF-induced phosphorylation of tyrosine 1173
T1 construct: endogenous in cells; host or cells: A431
Method: (§1) Tyrosine 1173 is a major autophosphorylation site resulting from activation of EGFR by epidermal growth factor (EGF). To determine the capacity of a compound to inhibit this phosphorylation activity of EGFR upon itself, the following methodology was used: 4×10^4 A431 cells/well in a 96-well culture plate or 3.6×10^5 A549 cells/well in a 24-well culture plate were cultured overnight at 37° C. in 5% CO2 in low serum culture medium (DMEM supplemented with 0.5% fetal calf serum, 4.500 mg/L glucose and 100 units/ml penicillin-streptomycin). After 16 hours, the cells were pre-incubated in eight serial 3-fold dilutions of test compound (3.3 μM-0.0017 μM) in addition to vehicle control (final concentration on DMSO vehicle was 1%) for two hours. Cells were stimulated by the addition of 5 ng/ml of EGF for five minutes. Cells were then washed with cold phosphate buffered saline (PBS), and incubated for 30 minutes at 4° C. in lysis buffer. Subsequently, the samples were centrifuged at 6000× RCF for 15 minutes, and the level of phosphorylation of EGFR tyrosine 1173 was measured using a sandwich enzyme-linked immunosorbent assay following the manufacturer's recommended protocols (Biosource, Camarillo, Calif.). Total EGFR levels were also measured in the same manner to control for protein level differences. The reported values are those concentrations of compound required to inhibit EGF-induced phosphorylation of tyrosine 1173 by 50%.

[2] = biological target: T2, human EGFR (wildtype), EGFR(DKIN) (Homo sapiens, UniProt P00533); experiment: Binding of wildtype-EGFR (T7 phage-displayed kinase competition binding)
T2 construct: Kd for EGFR(DKIN); made in house
T2 sequence (P00533 712-979 limits assumed): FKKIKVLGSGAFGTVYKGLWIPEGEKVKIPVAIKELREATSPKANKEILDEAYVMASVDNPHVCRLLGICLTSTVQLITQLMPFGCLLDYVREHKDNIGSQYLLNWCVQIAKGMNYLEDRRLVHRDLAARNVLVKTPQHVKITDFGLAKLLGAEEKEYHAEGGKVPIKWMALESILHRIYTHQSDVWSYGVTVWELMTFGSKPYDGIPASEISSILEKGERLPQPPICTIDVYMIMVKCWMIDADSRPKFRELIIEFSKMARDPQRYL
Excerpt: (§2) Methods for measuring binding affinities for interactions between small molecules and kinases including FLT3, c-KIT, ABL([…]) [a.k.a. ABL([…])], VEGFR-2 (a.k.a. KDR), and EGFR are described in detail in U.S. application Ser. No. 10/873,835, which is incorporated by reference herein in its entirety. The components of the assays include human kinases expressed as fusions to T7 bacteriophage particles and immobilized ligands that bind to the ATP site of the kinases. […] If the test compound binds the kinase it competes with the immobilized ligand and prevents binding to the solid support. […] The results are read out by quantitating the amount of fusion protein bound to the solid support, which is accomplished by either traditional phage plaque assays or by quantitative PCR (qPCR) using the phage genome as a template. […] The concentration of test molecule that reduces the number of phage bound to the solid support by 50% is equal to the Kd for the interaction between the kinase and the test molecule. Typically, data are collected for twelve concentrations of test compound and, the resultant binding curve is fit to a non-cooperative binding isotherm to calculate Kd. Described in the exemplary assays below is data from binding with varying kinases. […] The term “ND” represents non-determined values. […] The Kd for the interaction between the soluble compound (competitor) molecule and EGFR is equal to the concentration of soluble competitor molecule that causes a 50% reduction in the number of phage recovered in the eluate compared to a control sample lacking soluble competitor.

[3] = biological target: T3, EGFR (tyrosine 1173 phosphorylation) in Lung Cancer Cell Line A459 (Homo sapiens, UniProt P00533); experiment: EGFR Autophosphorylation Inhibition Assay in Lung Cancer Cell Line A459; format: cell-based; conditions: EGF-induced phosphorylation of tyrosine 1173
T3 construct: endogenous in cells
Method: as §1

EGFR (S752-1759del) = biological target: T4, EGFR (S752-1759del) (Homo sapiens, UniProt P00533, DEL752-759); experiment: Binding of mutant-EGFR (phage-displayed kinase competition binding)
T4 construct: made in house
T4 sequence (P00533 with tags, fused parts or gaps DEL752-759 limits assumed): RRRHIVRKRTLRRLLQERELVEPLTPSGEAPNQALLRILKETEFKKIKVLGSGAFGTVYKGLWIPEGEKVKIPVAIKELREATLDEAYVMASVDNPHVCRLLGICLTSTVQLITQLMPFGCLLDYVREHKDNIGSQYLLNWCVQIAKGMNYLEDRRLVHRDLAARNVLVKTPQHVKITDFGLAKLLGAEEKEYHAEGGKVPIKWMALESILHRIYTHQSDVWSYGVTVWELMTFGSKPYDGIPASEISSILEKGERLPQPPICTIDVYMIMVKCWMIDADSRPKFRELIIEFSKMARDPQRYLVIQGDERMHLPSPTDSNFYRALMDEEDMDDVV
Excerpt: as §2

EGFR (E746-A750del) = biological target: T5, EGFR (E746-A750del) (Homo sapiens, UniProt P00533, DEL746-750); experiment: as above
T5 construct: made in house
T5 sequence (P00533 with tags, fused parts or gaps DEL746-750): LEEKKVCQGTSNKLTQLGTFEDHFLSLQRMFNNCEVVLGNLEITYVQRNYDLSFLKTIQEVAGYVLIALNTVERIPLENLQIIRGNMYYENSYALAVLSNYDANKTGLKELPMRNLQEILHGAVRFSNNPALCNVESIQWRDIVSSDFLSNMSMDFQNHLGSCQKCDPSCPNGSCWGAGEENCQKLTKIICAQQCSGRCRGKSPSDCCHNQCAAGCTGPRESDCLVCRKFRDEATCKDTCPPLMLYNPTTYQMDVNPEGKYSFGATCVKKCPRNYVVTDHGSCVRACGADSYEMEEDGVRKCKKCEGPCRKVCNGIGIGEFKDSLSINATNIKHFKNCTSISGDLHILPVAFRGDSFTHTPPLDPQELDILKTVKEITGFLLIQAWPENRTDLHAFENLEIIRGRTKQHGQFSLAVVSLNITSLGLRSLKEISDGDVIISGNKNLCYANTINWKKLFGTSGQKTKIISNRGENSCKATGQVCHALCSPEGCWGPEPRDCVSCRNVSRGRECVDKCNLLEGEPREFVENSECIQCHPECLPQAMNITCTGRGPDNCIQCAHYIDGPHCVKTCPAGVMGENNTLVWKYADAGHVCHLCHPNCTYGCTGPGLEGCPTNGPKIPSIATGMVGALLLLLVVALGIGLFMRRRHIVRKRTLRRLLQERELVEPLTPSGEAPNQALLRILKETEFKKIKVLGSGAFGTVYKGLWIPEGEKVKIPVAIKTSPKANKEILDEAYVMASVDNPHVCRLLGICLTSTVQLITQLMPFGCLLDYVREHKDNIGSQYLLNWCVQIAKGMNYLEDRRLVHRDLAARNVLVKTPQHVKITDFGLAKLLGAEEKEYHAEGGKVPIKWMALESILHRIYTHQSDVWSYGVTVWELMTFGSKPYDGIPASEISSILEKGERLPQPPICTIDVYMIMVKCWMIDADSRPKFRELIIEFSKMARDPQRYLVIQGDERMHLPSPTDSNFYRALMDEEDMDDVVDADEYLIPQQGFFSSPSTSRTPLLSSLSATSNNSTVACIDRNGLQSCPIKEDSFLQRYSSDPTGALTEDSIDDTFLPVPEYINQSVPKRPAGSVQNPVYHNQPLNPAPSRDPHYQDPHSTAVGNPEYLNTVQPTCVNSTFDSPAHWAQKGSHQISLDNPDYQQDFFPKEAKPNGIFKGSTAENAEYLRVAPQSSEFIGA
Excerpt: as §2

EGFR (L858R) = biological target: T6, EGFR (L858R) (Homo sapiens, UniProt P00533, L858R); experiment: as above
T6 construct: made in house
T6 sequence (P00533 25-1210 L858R): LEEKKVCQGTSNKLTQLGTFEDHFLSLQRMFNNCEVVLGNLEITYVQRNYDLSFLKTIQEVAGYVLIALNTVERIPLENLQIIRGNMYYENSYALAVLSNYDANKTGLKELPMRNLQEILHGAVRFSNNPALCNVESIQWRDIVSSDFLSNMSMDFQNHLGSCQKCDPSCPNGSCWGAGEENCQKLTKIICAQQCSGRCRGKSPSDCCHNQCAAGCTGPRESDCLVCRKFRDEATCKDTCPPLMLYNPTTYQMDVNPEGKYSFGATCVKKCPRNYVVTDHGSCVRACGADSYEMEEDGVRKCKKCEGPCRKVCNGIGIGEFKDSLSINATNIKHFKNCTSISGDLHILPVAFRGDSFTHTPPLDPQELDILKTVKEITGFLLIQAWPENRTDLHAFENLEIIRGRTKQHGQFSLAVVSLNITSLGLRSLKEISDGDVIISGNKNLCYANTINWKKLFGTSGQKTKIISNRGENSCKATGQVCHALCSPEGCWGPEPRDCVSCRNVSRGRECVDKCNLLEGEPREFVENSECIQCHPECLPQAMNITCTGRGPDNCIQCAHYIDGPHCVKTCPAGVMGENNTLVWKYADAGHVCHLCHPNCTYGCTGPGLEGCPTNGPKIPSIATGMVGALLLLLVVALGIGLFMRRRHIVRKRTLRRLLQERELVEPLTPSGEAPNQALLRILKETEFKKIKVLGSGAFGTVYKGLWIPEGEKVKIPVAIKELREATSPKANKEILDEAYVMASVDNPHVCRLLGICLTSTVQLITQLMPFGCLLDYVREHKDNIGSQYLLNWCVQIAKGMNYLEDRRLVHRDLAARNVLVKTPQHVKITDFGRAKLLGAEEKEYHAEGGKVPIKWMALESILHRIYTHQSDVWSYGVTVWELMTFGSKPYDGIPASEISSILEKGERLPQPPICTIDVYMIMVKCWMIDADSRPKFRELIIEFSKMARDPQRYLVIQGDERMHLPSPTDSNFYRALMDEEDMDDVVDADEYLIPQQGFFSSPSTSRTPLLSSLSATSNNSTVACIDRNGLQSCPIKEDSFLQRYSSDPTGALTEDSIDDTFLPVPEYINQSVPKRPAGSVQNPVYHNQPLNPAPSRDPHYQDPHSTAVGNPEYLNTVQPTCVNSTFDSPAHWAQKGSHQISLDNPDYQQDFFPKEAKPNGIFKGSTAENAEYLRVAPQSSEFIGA
Excerpt: as §2

[4] = biological target: T7, EGFR (L747-E749del, A750P) (Homo sapiens, UniProt P00533, A750P/DEL747-749); experiment: as above
T7 construct: made in house
Excerpt: as §2

EGFR (G719S) = biological target: T8, EGFR (G719S) (Homo sapiens, UniProt P00533, G719S); experiment: as above
T8 construct: made in house
Excerpt: as §2

EGFR (G719C) = biological target: T9, EGFR (G719C) (Homo sapiens, UniProt P00533, G719C); experiment: as above
T9 construct: made in house
Excerpt: as §2

[5] = biological target: T10, EGFR (L747-T751del, Sins) (Homo sapiens, UniProt P00533, DEL747-750/T751S); experiment: as above
T10 construct: made in house
T10 sequence (P00533 with tags, fused parts or gaps DEL747-750/T751S limits assumed): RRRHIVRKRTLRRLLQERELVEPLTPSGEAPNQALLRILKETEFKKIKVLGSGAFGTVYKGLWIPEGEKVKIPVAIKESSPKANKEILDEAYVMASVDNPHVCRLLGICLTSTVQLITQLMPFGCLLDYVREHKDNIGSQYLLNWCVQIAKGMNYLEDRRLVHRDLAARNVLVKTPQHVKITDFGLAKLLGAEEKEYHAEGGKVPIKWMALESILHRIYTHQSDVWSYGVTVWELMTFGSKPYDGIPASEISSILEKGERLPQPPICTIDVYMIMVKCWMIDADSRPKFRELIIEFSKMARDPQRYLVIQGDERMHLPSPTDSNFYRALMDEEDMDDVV
Excerpt: as §2

[6] = biological target: T11, EGFR (L747-T752del, P753S) (Homo sapiens, UniProt P00533, DEL747-752/P753S); experiment: as above
T11 construct: made in house
T11 sequence (P00533 with tags, fused parts or gaps DEL747-752/P753S limits assumed): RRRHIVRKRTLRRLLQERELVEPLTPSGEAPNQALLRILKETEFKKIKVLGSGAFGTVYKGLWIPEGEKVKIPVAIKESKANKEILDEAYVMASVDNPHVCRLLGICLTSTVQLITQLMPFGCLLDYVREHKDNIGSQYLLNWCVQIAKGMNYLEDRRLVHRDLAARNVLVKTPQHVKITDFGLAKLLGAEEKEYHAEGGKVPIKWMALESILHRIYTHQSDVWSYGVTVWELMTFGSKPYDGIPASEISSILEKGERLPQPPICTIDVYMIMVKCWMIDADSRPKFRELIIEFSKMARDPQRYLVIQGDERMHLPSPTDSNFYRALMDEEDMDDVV
Excerpt: as §2

EGFR (L861Q) = biological target: T12, EGFR (L861Q) (Homo sapiens, UniProt P00533, L861Q); experiment: as above
T12 construct: made in house
T12 sequence (P00533 25-1210 L861Q): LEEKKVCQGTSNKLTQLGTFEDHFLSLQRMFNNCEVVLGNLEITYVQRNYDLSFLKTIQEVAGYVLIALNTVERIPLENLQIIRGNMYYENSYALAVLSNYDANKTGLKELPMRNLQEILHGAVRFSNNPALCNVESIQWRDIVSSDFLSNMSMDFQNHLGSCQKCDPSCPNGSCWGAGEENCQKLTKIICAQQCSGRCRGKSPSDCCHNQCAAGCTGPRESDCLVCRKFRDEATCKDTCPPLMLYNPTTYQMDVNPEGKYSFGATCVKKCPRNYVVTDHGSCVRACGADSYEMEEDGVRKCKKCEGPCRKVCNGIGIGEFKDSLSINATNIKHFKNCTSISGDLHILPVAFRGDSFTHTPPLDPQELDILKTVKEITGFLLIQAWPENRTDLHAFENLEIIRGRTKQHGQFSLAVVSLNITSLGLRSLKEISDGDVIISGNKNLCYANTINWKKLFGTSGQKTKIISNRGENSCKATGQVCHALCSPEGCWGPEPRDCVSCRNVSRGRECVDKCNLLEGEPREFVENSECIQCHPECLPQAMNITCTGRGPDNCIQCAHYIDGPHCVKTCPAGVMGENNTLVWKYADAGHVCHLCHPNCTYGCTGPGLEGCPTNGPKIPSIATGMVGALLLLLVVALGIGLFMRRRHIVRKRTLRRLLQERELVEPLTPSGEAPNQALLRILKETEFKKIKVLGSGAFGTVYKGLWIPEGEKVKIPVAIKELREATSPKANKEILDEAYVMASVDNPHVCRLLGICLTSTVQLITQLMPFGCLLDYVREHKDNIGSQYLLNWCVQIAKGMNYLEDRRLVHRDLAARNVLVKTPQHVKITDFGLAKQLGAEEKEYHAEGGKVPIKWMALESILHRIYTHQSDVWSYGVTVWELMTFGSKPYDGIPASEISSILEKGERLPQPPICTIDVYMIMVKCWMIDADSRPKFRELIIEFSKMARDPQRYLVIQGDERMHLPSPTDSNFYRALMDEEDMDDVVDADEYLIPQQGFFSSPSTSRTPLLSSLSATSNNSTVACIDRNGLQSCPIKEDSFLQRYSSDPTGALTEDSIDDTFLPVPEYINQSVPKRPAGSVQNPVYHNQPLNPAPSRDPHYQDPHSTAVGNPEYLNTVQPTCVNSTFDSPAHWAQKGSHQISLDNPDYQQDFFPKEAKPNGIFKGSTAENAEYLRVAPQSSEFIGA
Excerpt: as §2

Row | IC50 [1] | Kd [2] | IC50 [3] | SMILES | other results
1 | 100 to 1000 nM | < 100 nM | – | COc1ccc(-c2cc3c(Oc4cccc(Cl)c4)ncnc3[nH]2)cc1 [Compound D5] | –
2 | 100 to 1000 nM | < 100 nM | 1000 to 10000 nM | COc1cccc(-c2cc3c(Oc4cccc(Br)c4)ncnc3[nH]2)c1 [Compound D19] | –
3 | 100 to 1000 nM | 100 to 1000 nM | – | Oc1ccc(-c2cc3c(Oc4cc(Cl)cc(Cl)c4)ncnc3[nH]2)cc1 [Compound E1, 4-[4-(3,5-Dichloro-phenoxy)-7H-pyrrolo[2,3-d]pyrimidin-6-yl]-phenol] | –
4 | < 100 nM | < 100 nM | 100 to 1000 nM | Oc1ccc(-c2cc3c(Oc4cccc(Br)c4)ncnc3[nH]2)cc1 [Compound E3] | Kd (EGFR (S752-1759del)): < 100 nM; Kd (EGFR (E746-A750del)): < 100 nM; Kd (EGFR (L858R)): < 100 nM; Kd [4]: < 100 nM; Kd (EGFR (G719S)): < 100 nM; Kd (EGFR (G719C)): < 100 nM; Kd [5]: < 100 nM; Kd [6]: < 100 nM; Kd (EGFR (L861Q)): < 100 nM
5 | 1000 to 10000 nM | < 100 nM | 1000 to 10000 nM | COc1ccc(-c2cc3c(Sc4cccc(Cl)c4)ncnc3[nH]2)cc1 [Compound J7] | –
6 | 1000 to 10000 nM | < 100 nM | 1000 to 10000 nM | COc1ccc(-c2cc3c(Sc4cccc(F)c4)ncnc3[nH]2)cc1 [Compound J8] | –
7 | 1000 to 10000 nM | < 100 nM | – | COc1ccc(-c2cc3c(Sc4ccc(F)cc4)ncnc3[nH]2)cc1 [Compound J13] | –
8 | 1000 to 10000 nM | < 100 nM | 1000 to 10000 nM | COc1ccc(-c2cc3c(Sc4ccc(C)cc4)ncnc3[nH]2)cc1 [Compound J14] | –
9 | 1000 to 10000 nM | < 100 nM | 1000 to 10000 nM | COc1cccc(-c2cc3c(Sc4ccccc4Cl)ncnc3[nH]2)c1 [Compound J19] | –
10 | 1000 to 10000 nM | < 100 nM | – | CCc1ccccc1Sc1ncnc2[nH]c(-c3cccc(OC)c3)cc12 [Compound J20] | –
11 | 100 to 1000 nM | < 100 nM | 100 to 1000 nM | COc1cccc(-c2cc3c(Sc4cccc(Br)c4)ncnc3[nH]2)c1 [Compound J23] | –
12 | 100 to 1000 nM | < 100 nM | 100 to 1000 nM | COc1cccc(-c2cc3c(Sc4cccc(Cl)c4)ncnc3[nH]2)c1 [Compound J24] | –
13 | 100 to 1000 nM | < 100 nM | 1000 to 10000 nM | COc1cccc(-c2cc3c(Sc4cccc(F)c4)ncnc3[nH]2)c1 [Compound J25] | –
14 | 100 to 1000 nM | 100 to 1000 nM | 1000 to 10000 nM | COc1cccc(-c2cc3c(Sc4cccc(C)c4)ncnc3[nH]2)c1 [Compound J27] | –
15 | 1000 to 10000 nM | < 100 nM | – | COc1cccc(-c2cc3c(Sc4cccc(C(F)(F)F)c4)ncnc3[nH]2)c1 [Compound J28] | –
16 | 1000 to 10000 nM | < 100 nM | 1000 to 10000 nM | COc1cccc(-c2cc3c(Sc4ccc(F)cc4)ncnc3[nH]2)c1 [Compound J30] | –

Row | IC50 [1] | Kd [2] | IC50 [3] | SMILES | other results
17 | 1000 to 10000 nM | < 100 nM | > 10000 nM | COc1cccc(-c2cc3c(Sc4ccc(C)cc4)ncnc3[nH]2)c1 [Compound J31] | –
18 | 100 to 1000 nM | < 100 nM | 1000 to 10000 nM | COc1cccc(-c2cc3c(Sc4ccccc4)ncnc3[nH]2)c1 [Compound J33] | –
19 | 100 to 1000 nM | < 100 nM | – | COc1ccc(-c2cc3c(Sc4ccc(F)c(Cl)c4)ncnc3[nH]2)cc1 [Compound J37] | –
20 | 100 to 1000 nM | < 100 nM | 100 to 1000 nM | Clc1ccc(Sc2ncnc3c2[nH]c2ccccc23)cc1Cl [Compound K5] | Kd (EGFR (S752-1759del)): < 100 nM; Kd (EGFR (E746-A750del)): < 100 nM; Kd (EGFR (L858R)): < 100 nM; Kd [4]: < 100 nM; Kd (EGFR (G719S)): < 100 nM; Kd (EGFR (G719C)): < 100 nM; Kd [5]: < 100 nM; Kd [6]: < 100 nM; Kd (EGFR (L861Q)): 100 to 1000 nM
21 | 100 to 1000 nM | < 100 nM | – | Brc1cccc(Sc2ncnc3c2[nH]c2ccccc23)c1 [Compound K8] | –
22 | 100 to 1000 nM | < 100 nM | 100 to 1000 nM | Clc1cccc(Sc2ncnc3c2[nH]c2ccccc23)c1 [Compound K10] | –
23 | 100 to 1000 nM | < 100 nM | – | Clc1ccc(Sc2ncnc3c2[nH]c2ccccc23)cc1 [Compound K13] | –
24 | 100 to 1000 nM | < 100 nM | 100 to 1000 nM | Fc1ccc(Sc2ncnc3c2[nH]c2ccccc23)cc1 [Compound K14] | –
25 | 100 to 1000 nM | < 100 nM | – | Cc1ccc(Sc2ncnc3c2[nH]c2ccccc23)cc1 [Compound K15] | –
26 | < 100 nM | < 100 nM | 100 to 1000 nM | Oc1ccc(-c2cc3c(Sc4ccccc4)ncnc3[nH]2)cc1 [Compound L2] | Kd (EGFR (S752-1759del)): < 100 nM; Kd (EGFR (E746-A750del)): < 100 nM; Kd (EGFR (L858R)): < 100 nM; Kd [4]: < 100 nM; Kd (EGFR (G719S)): < 100 nM; Kd (EGFR (G719C)): < 100 nM; Kd [5]: < 100 nM; Kd [6]: < 100 nM; Kd (EGFR (L861Q)): < 100 nM
27 | < 100 nM | < 100 nM | 1000 to 10000 nM | Oc1ccc(-c2cc3c(Sc4cccc(F)c4)ncnc3[nH]2)cc1 [Compound L3] | –
28 | < 100 nM | < 100 nM | 1000 to 10000 nM | Cc1cccc(Sc2ncnc3[nH]c(-c4ccc(O)cc4)cc23)c1 [Compound L5] | –
29 | 100 to 1000 nM | < 100 nM | 1000 to 10000 nM | Oc1ccc(-c2cc3c(Sc4ccc(Cl)cc4)ncnc3[nH]2)cc1 [Compound L7] | –
30 | < 100 nM | < 100 nM | 1000 to 10000 nM | Oc1ccc(-c2cc3c(Sc4ccc(F)cc4)ncnc3[nH]2)cc1 [Compound L8] | –
31 | 100 to 1000 nM | < 100 nM | 1000 to 10000 nM | Cc1ccc(Sc2ncnc3[nH]c(-c4ccc(O)cc4)cc23)cc1 [Compound L9] | –
